Reference: patent publication US9896445B2, “Heterocyclic inhibitors of ERK1 and ERK2 and their use in the treatment of cancer” (Asana Biosciences, LLC, priority 2015, dated 2018)

What was measured:
ERK1 = target: T1, ERK1 (Homo sapiens, UniProt P27361); assay: ERK1 HTRF (biochemical) assay
T1 construct: purchased Jubilant Biosys
Procedure: ERK1 and ERK2 HTRF (Biochemical) Assays
These assays employed a homogeneous time resolved fluorescence (HTRF) technique. […] The plate was incubated at room temperature for 60 min with shaking. […] The IC50 values (half maximal inhibitory concentration values) were subsequently determined using a sigmoidal dose-response curve (variable slope) in GraphPad Prism® 5 software.

ERK2 = target: T2, ERK2 (Homo sapiens, UniProt P28482); assay: ERK2 HTRF (biochemical) assay
T2 construct: purchased Jubilant Biosys
T2 sequence (P28482 whole entry): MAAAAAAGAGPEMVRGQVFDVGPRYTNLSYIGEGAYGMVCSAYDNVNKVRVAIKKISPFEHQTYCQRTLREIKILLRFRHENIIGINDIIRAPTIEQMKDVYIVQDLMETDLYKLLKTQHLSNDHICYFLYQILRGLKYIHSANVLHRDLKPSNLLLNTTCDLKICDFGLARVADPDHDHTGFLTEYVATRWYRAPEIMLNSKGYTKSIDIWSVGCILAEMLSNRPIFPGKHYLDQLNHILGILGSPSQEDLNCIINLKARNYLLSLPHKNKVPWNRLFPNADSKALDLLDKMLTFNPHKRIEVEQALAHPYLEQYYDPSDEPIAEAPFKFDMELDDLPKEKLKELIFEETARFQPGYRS
Summary of the method: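 Compounds were tested as half-log dilutions from 0.0005 to 10 uM in Tris pH 7.5/MgCl2 buffer, with a substrate mix of 1 uM biotin-MBP peptide and 24 uM ATP and an enzyme mix of 25 nM ERK2. Reaction ran 60 min at room temperature. Phospho-MBP was detected by HTRF (Eu-anti-phospho-MBP/SA-APC, 665/620 nm), and IC50 was fitted with a variable-slope sigmoidal curve.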

T1 sequence (P27361 whole entry): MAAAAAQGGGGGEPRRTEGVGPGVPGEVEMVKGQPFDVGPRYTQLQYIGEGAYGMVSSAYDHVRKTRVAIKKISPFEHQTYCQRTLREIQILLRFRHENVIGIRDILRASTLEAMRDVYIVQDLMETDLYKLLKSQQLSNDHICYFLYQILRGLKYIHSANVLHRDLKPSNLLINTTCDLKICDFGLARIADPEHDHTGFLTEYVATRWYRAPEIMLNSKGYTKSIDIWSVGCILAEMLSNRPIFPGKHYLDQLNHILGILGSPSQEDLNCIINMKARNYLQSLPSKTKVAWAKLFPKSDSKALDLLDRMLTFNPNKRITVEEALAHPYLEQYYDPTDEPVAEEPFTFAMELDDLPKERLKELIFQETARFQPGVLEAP

Structure (SMILES) | IC50 (ERK1; HTRF) [nM] | IC50 (ERK2; HTRF) [nM] | IC50 (ERK1; HTRF biochemical assay) [nM] | IC50 (ERK2; HTRF biochemical assay) [nM]
Cc1cccc([C@@H](CO)NC(=O)c2ccn(-c3nc(N[C@H]4CCOC4)ncc3C)c2)n1 [Compound 207, N-((S)-2-hydroxy-1-(6-methylpyridin-2-yl)ethyl)-1-(5-methyl-2-(((S)-tetrahydrofuran-3-yl)amino)pyrimidin-4-yl)-1H-pyrrole-3-carboxamide] | < 50 | ≤ 50 |  | 
Cc1cnc(NC2CCN(C)C2)nc1-n1ccc(C(=O)N[C@H](CO)c2cccc(Cl)c2)c1 (stereo partly drawn) [Compound 208, N-((S)-1-(3-chlorophenyl)-2-hydroxyethyl)-1-(5-methyl-2-((1-methylpyrrolidin-3-yl)amino)pyrimidin-4-yl)-1H-pyrrole-3-carboxamide] | < 50 | ≤ 50 |  | 
O=C(N[C@H](CO)c1cccc(Cl)c1)c1ccn(-c2nc(NC3CCOCC3)ncc2F)c1 [Compound 229, (S)-N-(1-(3-chlorophenyl)-2-hydroxyethyl)-1-(5-fluoro-2-((tetrahydro-2H-pyran-4-yl)amino)-pyrimidin-4-yl)-1H-pyrrole-3-carboxamide] | < 50 | ≤ 50 |  | 
Cc1cnc(Nc2ccc(N3CCNCC3)cc2)nc1-n1ccc(C(=O)NC(CO)c2ccccc2)c1 (stereo not shown) [Compound 73, N-(2-hydroxy-1-phenylethyl)-1-(5-methyl-2-((4-(piperazin-1-yl)-phenyl)amino)pyrimidin-4-yl)-1H-pyrrole-3-carboxamide] | < 50 | ≤ 50 |  | 
Cc1cnc(Nc2ccc3c(c2)OCO3)nc1-n1ccc(C(=O)NC(CO)c2cccnc2)c1 (stereo not shown) [Compound 103, 1-(2-(benzo[d][1,3]dioxol-5-ylamino)-5-methylpyrimidin-4-yl)-N-(2-hydroxy-1-(pyridin-3-yl)ethyl)-1H-pyrrole-3-carboxamide] | 100 to 500 | ≤ 50 |  | 
Cc1cnc(Nc2ccc(F)cc2)nc1-n1cnc(C(=O)N[C@@H](CN)c2cccc(Cl)c2)c1 [Compound 249, (R)-N-(2-amino-1-(3-chlorophenyl)-ethyl)-1-(2-((4-fluorophenyl)-amino)-5-methyl-pyrimidin-4-yl)-1H-imidazole-4-carboxamide] | 500 to 2500 | 100 to 500 |  | 
Cc1cnc(Nc2ccc3c(c2)OC(F)(F)O3)cc1-n1cnc(C(=O)NC(CO)c2cccc(Cl)c2)c1 (stereo not shown) [Compound 90, N-(1-(3-chlorophenyl)-2-hydroxyethyl)-1-(2-((2,2-difluoro-benzo[d][1,3]dioxol-5-yl)amino)-5-methylpyridin-4-yl)-1H-imidazole-4-carboxamide] | 100 to 500 | ≤ 50 |  | 
Cc1cnc(NC2CCOCC2)nc1-n1cnc(C(=O)NC(c2cccc(Cl)c2)C(C)O)c1 (single isomer, unassigned) [Compound 252, N-(1-(3-chlorophenyl)-2-hydroxypropyl)-1-(5-methyl-2-((tetrahydro-2H-pyran-4-yl)amino)-pyrimidin-4-yl)-1H-imidazole-4-carboxamide] | < 50 | ≤ 50 |  | 
Cc1cnc(Nc2ccc3c(c2)OC(F)(F)O3)nc1-n1ccc(C(=O)N[C@H](CO)c2ccc(F)c(Cl)c2)c1 [Compound 69, (S)-N-(1-(3-chloro-4-fluorophenyl)-2-hydroxyethyl)-1-(2-((2,2-difluoro-benzo[d][1,3]dioxol-5-yl)amino)-5-methylpyrimidin-4-yl)-1H-pyrrole-3-carboxamide] | < 50 | ≤ 50 |  | 
Cc1cnc(Nc2ccc(F)cc2Cl)nc1-n1ccc(C(=O)NC(CO)c2ccccc2)c1 (stereo not shown) [Compound 32, 1-(2-((2-chloro-4-fluorophenyl)amino)-5-methyl-pyrimidin-4-yl)-N-(2-hydroxy-1-phenylethyl)-1H-pyrrole-3-carboxamide] | < 50 | ≤ 50 |  | 
Cc1cnc(Nc2ccc(F)c(N3CCOCC3)c2)nc1-n1cnc(C(=O)NC(CO)c2cccc(Cl)c2)c1 (stereo not shown) [Compound 223, N-(1-(3-chlorophenyl)-2-hydroxyethyl)-1-(2-((4-fluoro-3-morpholinophenyl)amino)-5-methyl-pyrimidin-4-yl)-1H-imidazole-4-carboxamide] | < 50 | ≤ 50 |  | 
Cc1cnc(Nc2ccc(F)cc2)cc1-n1ccc(C(=O)NC(CN)c2ccccc2)c1 (stereo not shown) [Compound 98, N-(2-amino-1-phenylethyl)-1-(2-((4-fluorophenyl)-amino)-5-methyl-pyridin-4-yl)-1H-pyrrole-3-carboxamide] | < 50 | ≤ 50 |  | 
Cc1cnc(N[C@H]2CC[C@H](O)CC2)nc1-n1cnc(C(=O)N[C@H](CO)c2cccc(Cl)c2)c1 [Compound 242, N-((S)-1-(3-chlorophenyl)-2-hydroxyethyl)-1-(2-(((1r,4S)-4-hydroxycyclohexyl)amino)-5-methyl-pyrimidin-4-yl)-1H-imidazole-4-carboxamide] | < 50 | ≤ 50 |  | 
Cc1cnc(NC2CCOCC2)nc1-n1cnc(C(=O)NC(CN)c2ccc(Cl)s2)c1 (single isomer, unassigned; enantiomer #2) [Example 291, N-(2-amino-1-(5-chlorothiophen-2-yl)ethyl)-1-(5-methyl-2-((tetrahydro-2H-pyran-4-yl)amino)-pyrimidin-4-yl)-1H-imidazole-4-carboxamide (enantiomer #2)] | < 50 | ≤ 50 |  | 
Cc1cnc(NC2CCOCC2)nc1-n1cnc(C(=O)NCc2cccc(Cl)c2CO)c1 [Compound 93, N-(3-chloro-2-(hydroxymethyl)benzyl)-1-(5-methyl-2-((tetrahydro-2H-pyran-4-yl)amino)pyrimidin-4-yl)-1H-imidazole-4-carboxamide] | < 50 | ≤ 50 |  | 
Cc1cnc(Nc2ccc3c(c2)OC(F)(F)O3)nc1-n1ccc(C(=O)NC(CN)c2cccc(Cl)c2)c1 (stereo not shown) [Compound 136, N-(2-amino-1-(3-chlorophenyl)ethyl)-1-(2-((2,2-difluorobenzo[d][1,3]dioxol-5-yl)amino)-5-methylpyrimidin-4-yl)-1H-pyrrole-3-carboxamide] | 50 to 100 | ≤ 50 |  | 
Cc1cnc(Nc2ccccc2Cl)nc1-n1cc(NC(=O)NC(CO)c2cccc(Cl)c2)cn1 (stereo not shown) [Compound 43, 1-(1-(3-chlorophenyl)-2-hydroxyethyl)-3-(1-(2-((2-chloro-phenyl)amino)-5-methylpyrimidin-4-yl)-1H-pyrazol-4-yl)urea] | > 2500 | > 2500 |  | 
Cc1cnc(NC2CCOCC2)nc1-n1cnc(C(=O)NCc2ccccc2CO)c1 [Example 287, N-(2-(hydroxy-methyl)benzyl)-1-(5-methyl-2-((tetrahydro-2H-pyran-4-yl)amino)-pyrimidin-4-yl)-1H-imidazole-4-carboxamide] | < 50 | ≤ 50 |  | 
Cc1cnc(Nc2ccc(N3CCC(N4CCNCC4)CC3)cc2)nc1-n1ccc(C(=O)NC(CO)c2ccccc2)c1 (stereo not shown) [Compound 178, N-(2-hydroxy-1-phenylethyl)-1-(5-methyl-2-((4-(4-(piperazin-1-yl)-piperidin-1-yl)-phenyl)amino)pyrimidin-4-yl)-1H-pyrrole-3-carboxamide] | 100 to 500 | 100 to 500 |  | 
Cc1cnc(N[C@H]2CCOC2)nc1-n1cnc(C(=O)NCc2cc(Cl)cc(Cl)c2)c1 [Example 313, (S)-N-(3,5-dichloro-benzyl)-1-(5-methyl-2-((tetrahydrofuran-3-yl)amino)-pyrimidin-4-yl)-1H-imidazole-4-carboxamide] |  |  | < 50 | ≤ 50
CCC(=O)OCc1c(Cl)cccc1CNC(=O)c1cn(-c2nc(NC3CCOCC3)ncc2C)cn1 [Example 348, 2-chloro-6-((1-(5-methyl-2-((tetrahydro-2H-pyran-4-yl)amino)-pyrimidin-4-yl)-1H-imidazole-4-carboxamido)-methyl)benzyl-propionate] |  |  | < 50 | ≤ 50
Cc1cnc(Nc2ccc3c(c2)OC(C)(C)O3)nc1-n1ccc(C(=O)NC(CO)c2ccccc2)c1 (stereo not shown) [Compound 95, 1-(2-((2,2-dimethylbenzo[d] [1,3]dioxol-5-yl)-amino)-5-methyl-pyrimidin-4-yl)-N-(2-hydroxy-1-phenylethyl)-1H-pyrrole-3-carboxamide] | 50 to 100 | ≤ 50 |  | 
Cc1cnc(NC2CCOCC2)nc1-n1cnc(C(=O)NC(CN)c2cccc(Cl)c2)c1 (racemic) [Compound 225, N-(2-Amino-1-(3-chlorophenyl)ethyl)-1-(5-methyl-2-((tetrahydro-2H-pyran-4-yl)amino)pyrimidin-4-yl)-1H-imidazole-4-carboxamide] | < 50 | ≤ 50 |  | 
CNCCNC[C@@H](NC(=O)c1cn(-c2nc(NC3CCOCC3)ncc2C)cn1)c1cccc(Cl)c1 [Example 345, ((S)-N-(1-(3-chlorophenyl)-2-((2-(methylamino)ethyl)amino)ethyl)-1-(5-methyl-2-((tetrahydro-2H-pyran-4-yl)amino)-pyrimidin-4-yl)-1H-imidazole-4-carboxamide2,2,2-trifluoroacetate] |  |  | < 50 | ≤ 50
O=C(N[C@H](CO)c1cccc(Cl)c1)c1ccn(-c2ccnc(NC3CCOC3)c2)c1 (stereo partly drawn) [Compound 188, N-((S)-1-(3-chlorophenyl)-2-hydroxyethyl)-1-(2-((tetrahydrofuran-3-yl)amino)pyridin-4-yl)-1H-pyrrole-3-carboxamide] | 100 to 500 | 100 to 500 |  | 
Cc1cnc(NC2CCOCC2)nc1-n1cnc(C(=O)NCc2ccc(Cl)c(CO)c2)c1 [Example 330, N-(4-chloro-3-(hydroxymethyl)-benzyl)-1-(5-methyl-2-((tetrahydro-2H-pyran-4-yl)amino)-pyrimidin-4-yl)-1H-imidazole-4-carboxamide] |  |  | < 50 | ≤ 50
